# Laboratory results published in US5552382A (priority 1994, dated 1996).
# Experiments:
# [1] = 30 minutes in an autoclave; cited from earlier work
# [2] = tested on: IIIB strain of HIV; experiment: microbe, parasite or virus in culture; assay type: cell-based
# Description: The following test procedure was employed.
# In a classical virology assay aimed at testing the antiviral activity of a drug, the virus is added in the presence of a drug to target cells for the determined period of inoculation time, e.g., 1 hour, and then nonadsorbed virus is washed away and inoculated cells are exposed again to a fresh drug. After several days, a period corresponding to the replication cycle of the virus, the dose-effect of the drug is tested by measuring the quantity of newly-synthesized virus in the culture supernates of inoculated cells. But this strategy is not truly representative of the in vivo situation. It is clear that in a real-life situation the virus is not "flushed" from a human body prior to drug administration. […] In the present assay, virus, drug and cells were left without washing in the culture until tested for virus production 3 days later. This period of time presents one full cycle of HIV replication, Dimitrov et al., J. Virol. 67:2182-90, 1993. It is believed that this type of approach represents more closely and simulates the situation which exists in vivo.
# p24 ELISA. Reduction of productive infection was evaluated by a commercial ELISA kit for viral core gag p24 product according to the manufacturer's instructions (Coulter, Hialeah, Fla.) as follows. Detergent-lysed samples of viral culture medium that were incubated in wells (96-well format), precoated with anti-p24 antibody, were screened for gag antigen by adding biotin-labeled anti-p24 antibody followed by streptavidin-peroxidase conjugate. The amount of captured p24 was measured by comparing the optical density (450 nm) of peroxidase substrate with supplied standards containing known amounts of p24. The lower limit of reliable sensitivity of this kit is 7.8 pg/ml.
# [3] = tested on: MT-4 lymphocytes; conditions: MT-4 cells, 3 days continuous exposure; approximate log10 concentration
# [4] = tested on: HIV; conditions: cited from earlier work; for Dose protecting against / abrogating HIV infection in vitro: literature figures, equivalent of the % or μM value
# [5] = MT-4 cells, HIV IIIB, 3 days, p24 ELISA, approximate log10 concentration
Molecule,Retention of biological activity after autoclaving [1],"IC100 (100% inhibition of HIV infection) [2, 5]","Cytopathic effect (membrane ballooning, syncytia) ([2]; wells where viral replication was completely inhibited)","IC50 ([2]; Human immunodeficiency virus 1, MT4, 72 h, MT-4 cells, HIV IIIB, 3 days, p24 ELISA, approximate log10 concentration, read-out: IC50 (50% inhibition of HIV infection))","Dose giving complete protection against HIV infection ([2]; MT-4 cells, HIV IIIB)",CC100 (cytotoxicity) [3],Dose protecting against / abrogating HIV infection in vitro [4],Concentration reported to abrogate HIV infection ([4]; literature in vitro studies),"IC50 (50% inhibition of HIV infection) [2, 5]",Dose at which the protective effect was generally observed in vitro ([4]; literature review of in vitro investigations)
gramicidin S,retains its biological activity,–,–,–,–,–,–,–,–,–
gramicidin,–,~0.01 µg,No signs of cytophatic effect were observed,–,–,–,–,–,–,–
"Cc1cc2c(C(C)C)c(O)c(O)c(C=O)c2c(O)c1-c1c(C)cc2c(C(C)C)c(O)c(O)c(C=O)c2c1O [Gossypol, gossypol]",–,~10 µg,–,~1 µg/mL,10 µg/mL,~10 µg,50 µg/mL,100 µM,–,–
nonoxynol-9,–,~10 µg,–,–,10 µg/mL,~10 µg,50 µg/mL,–,~10 ng,0.05%
